Measurements taken from article PMC11823630, “In vitro potentiation of tetracyclines in Pseudomonas aeruginosa by RW01, a new cyclic peptide” (Antimicrobial Agents and Chemotherapy, 2024).
In brackets after ≈: the same amount, converted by molar mass.

Legend:
PAO1 one-step mutants = test: MIC, MHB microdilution, mutants summarised as a group; format: cell-based, Pseudomonas aeruginosa
Experimental: MIC for RW01 was also tested.
Selection of resistant mutants was performed for minocycline with and without RW01 in three independent replicates for wild-type P. aeruginosa reference strain PAO1. Tubes containing Mueller-Hinton broth (MHB) were inoculated and incubated for 24 h at 37°C. Afterward, 1/100 dilution of each tube was incubated at 37°C in MHB to late-exponential growth phase, measured by spectrophotometry at OD600. […] A control plate without antibiotic was included as inoculum control. After overnight incubation, colony counting of each treatment was performed to analyze the generation of resistant population. The mutant prevention concentration (MPC) was defined as the lowest concentration of antibiotic yielding no growth of resistant mutants. Selected mutants were checked for susceptibility profiles by using a Sensititre custom plate (Thermo Fisher Scientific, Massachusetts, USA) for Gram-negative bacteria, following the manufacturer’s instructions.

[1] = tested on: PAO1 mutant MIN1_RW01_1, pmrB(Y98N); test: MIC, MHB microdilution; conditions: Pseudomonas aeruginosa, PAO1, read-out: MIC, MHB microdilution
[2] = tested on: PAO1 mutant MIN1_RW01_3, pmrB(V215L); test: MIC, MHB microdilution; conditions: Pseudomonas aeruginosa, PAO1, read-out: MIC, MHB microdilution
[3] = tested on: PAO1 mutant MIN2_RW01_3, parS(V152A); test: MIC, MHB microdilution; conditions: Pseudomonas aeruginosa, PAO1, read-out: MIC, MHB microdilution
[4] = tested on: PAO1 mutant MIN4_RW01_3, pmrB(M292T); test: MIC, MHB microdilution; conditions: Pseudomonas aeruginosa, PAO1, read-out: MIC, MHB microdilution
[5] = tested on: PAO1 mutant MIN8_2, pilZ(nt18InsT); test: MIC, MHB microdilution; conditions: Pseudomonas aeruginosa, PAO1, read-out: MIC, MHB microdilution
[6] = tested on: PAO1 mutant MIN32_1, mexR(R63H), pilB(N349K), PA0646(V316G); test: MIC, MHB microdilution; conditions: Pseudomonas aeruginosa, PAO1, read-out: MIC, MHB microdilution

CN(C)c1ccc(O)c2c1C[C@H]1C[C@H]3[C@H](N(C)C)C(O)=C(C(N)=O)C(=O)[C@@]3(O)C(O)=C1C2=O [Minocycline, minocycline]
MIC (PAO1 one-step mutants; Pseudomonas aeruginosa, PAO1, read-out: highest MIC among the mutants): ≤ 64 µg/mL | MIC range over the tested mutants (PAO1 one-step mutants; agent alone, both mutant types, for minocycline the typical range): 16 to 32 µg/mL | MIC of the minocycline-RW01 combination (PAO1 one-step mutants; mutants selected by minocycline + RW01): 4.0 to 8.0 µg/mL | MIC [1]: 16 µg/mL (≈ 35 µM) | MIC [2]: 16 µg/mL (≈ 35 µM) | MIC [3]: 16 µg/mL (≈ 35 µM) | MIC [4]: 64 µg/mL (≈ 140 µM) | MIC [5]: 16 µg/mL (≈ 35 µM) | MIC [6]: 32 to 64 µg/mL (≈ 69.9 to 140 µM)
